In ChEMBL document CHEMBL1139793, “Synthesis, structure analysis, and antibacterial activity of some novel 10-substituted 2-(4-piperidyl/phenyl)-5,5-dioxo[1,2,4]triazolo[1,5-b][1,2,4]benzothiadiazine derivatives” (2007):
≈ marks a conversion by molar mass, not a printed value.

Tested on: Klebsiella pneumoniae
Test: Antibacterial activity against Klebsiella pneumoniae MTCC 618 after 24 hrs by disk diffusion method
Assay type: functional

Row | SMILES | MIC [µg/mL]
1 | O=S(=O)(Nc1ccc(-c2nc3n(n2)S(=O)(=O)c2ccccc2N3c2ccccc2)cc1)c1ccc(F)cc1 | 64 (≈ 117 µM)
2 | CC(=O)Nc1ccc(S(=O)(=O)Nc2ccc(-c3nc4n(n3)S(=O)(=O)c3ccccc3N4c3ccccc3)cc2)cc1 | 16 (≈ 27.3 µM)
3 | Cc1ccc(S(=O)(=O)N2CCC(c3nc4n(n3)S(=O)(=O)c3ccccc3N4C)CC2)cc1 | 64 (≈ 135 µM)
4 | CN1c2ccccc2S(=O)(=O)n2nc(C3CCN(S(=O)(=O)c4ccc(F)cc4)CC3)nc21 | 16 (≈ 33.5 µM)
5 | O=S(=O)(c1ccc(F)cc1)N1CCC(c2nc3n(n2)S(=O)(=O)c2ccccc2N3c2ccccc2)CC1 | 32 (≈ 59.3 µM)
6 | O=S(=O)(Nc1ccc(-c2nc3n(n2)S(=O)(=O)c2ccccc2N3c2ccccc2)cc1)c1ccccc1 | 32 (≈ 60.4 µM)
7 | Nc1ccc(S(N)(=O)=O)cc1 [SULFANILAMIDE] | > 64
8 | O=S(=O)(c1ccc(Cl)cc1Cl)N1CCC(c2nc3n(n2)S(=O)(=O)c2ccccc2N3c2ccccc2)CC1 | 32 (≈ 54.2 µM)
9 | CC(=O)Nc1ccc(S(=O)(=O)N2CCC(c3nc4n(n3)S(=O)(=O)c3ccccc3N4c3ccccc3)CC2)cc1 | 32 (≈ 55.3 µM)

Tested on: Bacillus subtilis
Test: Antibacterial activity against Bacillus subtilis MTCC 441 after 24 hrs by disk diffusion method
Assay type: functional

Row | SMILES | MIC [µg/mL]
10 | O=S(=O)(Nc1ccc(-c2nc3n(n2)S(=O)(=O)c2ccccc2N3c2ccccc2)cc1)c1ccc(F)cc1 | 16 (≈ 29.2 µM)
11 | CC(=O)Nc1ccc(S(=O)(=O)Nc2ccc(-c3nc4n(n3)S(=O)(=O)c3ccccc3N4c3ccccc3)cc2)cc1 | 8 (≈ 13.6 µM)
12 | Cc1ccc(S(=O)(=O)N2CCC(c3nc4n(n3)S(=O)(=O)c3ccccc3N4C)CC2)cc1 | 16 (≈ 33.8 µM)
13 | CN1c2ccccc2S(=O)(=O)n2nc(C3CCN(S(=O)(=O)c4ccc(F)cc4)CC3)nc21 | 32 (≈ 67 µM)
14 | O=S(=O)(c1ccc(F)cc1)N1CCC(c2nc3n(n2)S(=O)(=O)c2ccccc2N3c2ccccc2)CC1 | 16 (≈ 29.7 µM)
15 | O=S(=O)(Nc1ccc(-c2nc3n(n2)S(=O)(=O)c2ccccc2N3c2ccccc2)cc1)c1ccccc1 | 8 (≈ 15.1 µM)
16 | Nc1ccc(S(N)(=O)=O)cc1 [SULFANILAMIDE] | > 128
17 | O=S(=O)(c1ccc(Cl)cc1Cl)N1CCC(c2nc3n(n2)S(=O)(=O)c2ccccc2N3c2ccccc2)CC1 | 16 (≈ 27.1 µM)
18 | CC(=O)Nc1ccc(S(=O)(=O)N2CCC(c3nc4n(n3)S(=O)(=O)c3ccccc3N4c3ccccc3)CC2)cc1 | 16 (≈ 27.6 µM)

Tested on: Pseudomonas aeruginosa
Test: Antibacterial activity against Pseudomonas aeruginosa MTCC 424 after 24 hrs by disk diffusion method
Assay type: functional

Row | SMILES | MIC [µg/mL]
19 | O=S(=O)(Nc1ccc(-c2nc3n(n2)S(=O)(=O)c2ccccc2N3c2ccccc2)cc1)c1ccc(F)cc1 | 32 (≈ 58.4 µM)
20 | CC(=O)Nc1ccc(S(=O)(=O)Nc2ccc(-c3nc4n(n3)S(=O)(=O)c3ccccc3N4c3ccccc3)cc2)cc1 | 32 (≈ 54.5 µM)
21 | Cc1ccc(S(=O)(=O)N2CCC(c3nc4n(n3)S(=O)(=O)c3ccccc3N4C)CC2)cc1 | 64 (≈ 135 µM)
22 | CN1c2ccccc2S(=O)(=O)n2nc(C3CCN(S(=O)(=O)c4ccc(F)cc4)CC3)nc21 | 32 (≈ 67 µM)
23 | O=S(=O)(c1ccc(F)cc1)N1CCC(c2nc3n(n2)S(=O)(=O)c2ccccc2N3c2ccccc2)CC1 | 32 (≈ 59.3 µM)
24 | O=S(=O)(Nc1ccc(-c2nc3n(n2)S(=O)(=O)c2ccccc2N3c2ccccc2)cc1)c1ccccc1 | 32 (≈ 60.4 µM)
25 | Nc1ccc(S(N)(=O)=O)cc1 [SULFANILAMIDE] | > 512
26 | O=S(=O)(c1ccc(Cl)cc1Cl)N1CCC(c2nc3n(n2)S(=O)(=O)c2ccccc2N3c2ccccc2)CC1 | 32 (≈ 54.2 µM)
27 | CC(=O)Nc1ccc(S(=O)(=O)N2CCC(c3nc4n(n3)S(=O)(=O)c3ccccc3N4c3ccccc3)CC2)cc1 | 32 (≈ 55.3 µM)

Tested on: Staphylococcus epidermidis
Test: Antibacterial activity against Staphylococcus epidermidis MTCC 435 after 24 hrs by disk diffusion method
Assay type: functional

Row | SMILES | MIC [µg/mL]
28 | O=S(=O)(Nc1ccc(-c2nc3n(n2)S(=O)(=O)c2ccccc2N3c2ccccc2)cc1)c1ccc(F)cc1 | 16 (≈ 29.2 µM)
29 | CC(=O)Nc1ccc(S(=O)(=O)Nc2ccc(-c3nc4n(n3)S(=O)(=O)c3ccccc3N4c3ccccc3)cc2)cc1 | 32 (≈ 54.5 µM)
30 | Cc1ccc(S(=O)(=O)N2CCC(c3nc4n(n3)S(=O)(=O)c3ccccc3N4C)CC2)cc1 | 32 (≈ 67.6 µM)
31 | CN1c2ccccc2S(=O)(=O)n2nc(C3CCN(S(=O)(=O)c4ccc(F)cc4)CC3)nc21 | 32 (≈ 67 µM)
32 | O=S(=O)(c1ccc(F)cc1)N1CCC(c2nc3n(n2)S(=O)(=O)c2ccccc2N3c2ccccc2)CC1 | 32 (≈ 59.3 µM)
33 | O=S(=O)(Nc1ccc(-c2nc3n(n2)S(=O)(=O)c2ccccc2N3c2ccccc2)cc1)c1ccccc1 | 32 (≈ 60.4 µM)
34 | Nc1ccc(S(N)(=O)=O)cc1 [SULFANILAMIDE] | > 512
35 | O=S(=O)(c1ccc(Cl)cc1Cl)N1CCC(c2nc3n(n2)S(=O)(=O)c2ccccc2N3c2ccccc2)CC1 | 32 (≈ 54.2 µM)
36 | CC(=O)Nc1ccc(S(=O)(=O)N2CCC(c3nc4n(n3)S(=O)(=O)c3ccccc3N4c3ccccc3)CC2)cc1 | 32 (≈ 55.3 µM)

Tested on: Vibrio sp.
Test: Antibacterial activity against Vibrio sp. after 24 hrs by disk diffusion method
Assay type: functional

Row | SMILES | MIC [µg/mL]
37 | O=S(=O)(Nc1ccc(-c2nc3n(n2)S(=O)(=O)c2ccccc2N3c2ccccc2)cc1)c1ccc(F)cc1 | 32 (≈ 58.4 µM)
38 | CC(=O)Nc1ccc(S(=O)(=O)Nc2ccc(-c3nc4n(n3)S(=O)(=O)c3ccccc3N4c3ccccc3)cc2)cc1 | 32 (≈ 54.5 µM)
39 | Cc1ccc(S(=O)(=O)N2CCC(c3nc4n(n3)S(=O)(=O)c3ccccc3N4C)CC2)cc1 | 32 (≈ 67.6 µM)
40 | CN1c2ccccc2S(=O)(=O)n2nc(C3CCN(S(=O)(=O)c4ccc(F)cc4)CC3)nc21 | 32 (≈ 67 µM)
41 | O=S(=O)(c1ccc(F)cc1)N1CCC(c2nc3n(n2)S(=O)(=O)c2ccccc2N3c2ccccc2)CC1 | 16 (≈ 29.7 µM)
42 | O=S(=O)(Nc1ccc(-c2nc3n(n2)S(=O)(=O)c2ccccc2N3c2ccccc2)cc1)c1ccccc1 | 32 (≈ 60.4 µM)
43 | Nc1ccc(S(N)(=O)=O)cc1 [SULFANILAMIDE] | > 512
44 | O=S(=O)(c1ccc(Cl)cc1Cl)N1CCC(c2nc3n(n2)S(=O)(=O)c2ccccc2N3c2ccccc2)CC1 | 16 (≈ 27.1 µM)
45 | CC(=O)Nc1ccc(S(=O)(=O)N2CCC(c3nc4n(n3)S(=O)(=O)c3ccccc3N4c3ccccc3)CC2)cc1 | 32 (≈ 55.3 µM)

Tested on: Escherichia coli
Test: Antibacterial activity against Escherichia coli MTCC 448 after 24 hrs by disk diffusion method
Assay type: functional

Row | SMILES | MIC [µg/mL]
46 | O=S(=O)(Nc1ccc(-c2nc3n(n2)S(=O)(=O)c2ccccc2N3c2ccccc2)cc1)c1ccc(F)cc1 | 16 (≈ 29.2 µM)
47 | CC(=O)Nc1ccc(S(=O)(=O)Nc2ccc(-c3nc4n(n3)S(=O)(=O)c3ccccc3N4c3ccccc3)cc2)cc1 | 8 (≈ 13.6 µM)
48 | Cc1ccc(S(=O)(=O)N2CCC(c3nc4n(n3)S(=O)(=O)c3ccccc3N4C)CC2)cc1 | 16 (≈ 33.8 µM)
49 | CN1c2ccccc2S(=O)(=O)n2nc(C3CCN(S(=O)(=O)c4ccc(F)cc4)CC3)nc21 | 16 (≈ 33.5 µM)
50 | O=S(=O)(c1ccc(F)cc1)N1CCC(c2nc3n(n2)S(=O)(=O)c2ccccc2N3c2ccccc2)CC1 | 16 (≈ 29.7 µM)
51 | O=S(=O)(Nc1ccc(-c2nc3n(n2)S(=O)(=O)c2ccccc2N3c2ccccc2)cc1)c1ccccc1 | 16 (≈ 30.2 µM)
52 | Nc1ccc(S(N)(=O)=O)cc1 [SULFANILAMIDE] | > 128
53 | O=S(=O)(c1ccc(Cl)cc1Cl)N1CCC(c2nc3n(n2)S(=O)(=O)c2ccccc2N3c2ccccc2)CC1 | 16 (≈ 27.1 µM)
54 | CC(=O)Nc1ccc(S(=O)(=O)N2CCC(c3nc4n(n3)S(=O)(=O)c3ccccc3N4c3ccccc3)CC2)cc1 | 16 (≈ 27.6 µM)
